PubChem BioAssay AID493105 (The Scripps Research Institute Molecular Screening Center, 2011)
Activity calls are given as the source filed them. The rule behind the calls is not given here.

Experiments:
Test in all cases: LYPLA1 and LYPLA2 inhibitors, biochemical, gel-based ABPP, fluorescence, recombinant and endogenous enzyme (AID 493105)
emLYPLA1 = conditions: fluorescent probe labeling, membrane fraction, at 20 µM, hits give high values
emLYPLA2 = conditions: fluorescent probe labeling, membrane fraction, at 20 µM, hits give high values
rhLYPLA2 = conditions: fluorescent probe labeling, membrane fraction, at 20 µM, hits give high values
rhLYPLA1 = conditions: fluorescent probe labeling, soluble fraction, at 20 µM, hits give high values

Compound	inhibition (emLYPLA1)	inhibition (emLYPLA2)	inhibition (rhLYPLA2)	inhibition (rhLYPLA1)
O=C(COc1ccc(Cl)cc1)N1CCN(c2cccc(C(F)(F)F)c2)CC1	0% (inactive)	9% (inactive)	0% (inactive)	0% (inactive)
N#Cc1c(NC(=O)CN2CCN(C(=O)c3ccco3)CC2)sc2c1CCCCC2	0% (inactive)	6% (inactive)	0% (inactive)	20% (inactive)
COc1ccc(S(=O)(=O)Nc2ccc(Cc3ccncc3)cc2)cc1C	–	0% (inactive)	0% (inactive)	12% (inactive)
O=C(/C=C/c1ccccc1)N1CCN(CCN2C(=O)c3cccc4cccc(c34)C2=O)CC1	–	34%	18% (inactive)	15% (inactive)
CC(=O)c1ccc(N2CCN(C(=O)c3ccc(C(=O)c4ccccc4)cc3)CC2)cc1	13% (inactive)	0% (inactive)	2% (inactive)	0% (inactive)
CCC(=C/c1sc2ccc3ccccc3c2[n+]1C)/C=C1\Sc2ccc3ccccc3c2N1C	1% (inactive)	7% (inactive)	2% (inactive)	0% (inactive)
O=C(c1cc(COc2cccc(C(F)(F)F)c2)on1)N1CCC(Oc2cccnc2)CC1	–	0% (inactive)	0% (inactive)	0% (inactive)
O=C(/C=C/c1ccc(Br)cc1)N1CCN(c2cccc(C(F)(F)F)c2)CC1	–	16% (inactive)	15% (inactive)	16% (inactive)
N#Cc1ccccc1OCCCN1CCC(Cc2ccccc2)CC1	11% (inactive)	9% (inactive)	0% (inactive)	21% (inactive)
COc1ccccc1-n1cc(C(=O)NCC(=O)N2CCN(Cc3ccccc3)CC2)c2ccccc2c1=O	1% (inactive)	52%	39%	0% (inactive)
COc1cccc(N=C2NC(=O)/C(=C/c3cc([N+](=O)[O-])ccc3O)S2)c1	20% (inactive)	6% (inactive)	0% (inactive)	0% (inactive)
Clc1cccc(N2CCN(CCNc3nc4ccccc4n4cnnc34)CC2)c1	1% (inactive)	0% (inactive)	0% (inactive)	0% (inactive)
O=C(CCCc1ccccc1)N1CCN(c2ccc([N+](=O)[O-])cc2)CC1	0% (inactive)	3% (inactive)	0% (inactive)	0% (inactive)
COc1ccc(OCC(O)CN2CCC(CN3C(=O)c4cccc5cccc(c45)C3=O)CC2)cc1 (configuration not stated)	0% (inactive)	16% (inactive)	9% (inactive)	0% (inactive)
Nc1nc(NCc2ccco2)nc(N2CCN(Cc3ccccc3)CC2)c1[N+](=O)[O-]	–	1% (inactive)	5% (inactive)	2% (inactive)
COc1cc(/C=N/N2CCN(Cc3ccc(Cl)cc3)CC2)cc(Br)c1O	0% (inactive)	0% (inactive)	0% (inactive)	31%
COc1ccc(-n2nc(C(=O)NCC(=O)N3CCN(Cc4ccccc4)CC3)c3ccccc3c2=O)cc1OC	23% (inactive)	15% (inactive)	7% (inactive)	16% (inactive)
O=C(NC(=S)Nc1sc2c(c1C(=O)O)CCCC2)c1ccccc1	–	52%	34%	2% (inactive)
O=C(COc1ccc(Cl)cc1)N1CCN(c2ccc([N+](=O)[O-])c(N3CCCCC3)c2)CC1	–	10% (inactive)	5% (inactive)	36%
O=C(CN1CCN(c2ccccn2)CC1)Nc1cc(C(F)(F)F)ccc1Cl	0% (inactive)	9% (inactive)	6% (inactive)	36%
OC(COc1ccc(Cl)cc1)CN1CCN(c2cccc(Cl)c2)CC1 (configuration not stated)	0% (inactive)	0% (inactive)	0% (inactive)	0% (inactive)
Cc1ccc(OCC(=O)N2CCN(C(=O)CCC3CCCC3)CC2)cc1	14% (inactive)	14% (inactive)	3% (inactive)	43%
COc1ccc(OC)c(NC(=O)C2CCC(CNc3c(N4CCC(C)CC4)c(=O)c3=O)CC2)c1 (configuration not stated)	2% (inactive)	3% (inactive)	7% (inactive)	27% (inactive)
CCOc1ccc(NC(=S)NC(=O)c2c(Br)cnn2C)c([N+](=O)[O-])c1	–	16% (inactive)	5% (inactive)	17% (inactive)

Compound	inhibition (emLYPLA1)	inhibition (emLYPLA2)	inhibition (rhLYPLA2)	inhibition (rhLYPLA1)
O=C(c1ccc2n[nH]nc2c1)N1CCN(c2ccc(C(F)(F)F)cn2)CC1	90%	57%	32%	70%
COc1cc(COc2ccc3c(C)c(Cc4ccccc4)c(=O)oc3c2)cc(OC)c1OC	0% (inactive)	4% (inactive)	0% (inactive)	0% (inactive)
O=C(Nc1ccc2oc(-c3cccnc3)nc2c1)c1ccc2c(c1)OCCO2	0% (inactive)	0% (inactive)	0% (inactive)	0% (inactive)
O=C(C1CCC(Cn2c(=S)[nH]c3ccccc3c2=O)CC1)N1CCN(c2ccccc2)CC1 (configuration not stated)	0% (inactive)	8% (inactive)	13% (inactive)	0% (inactive)
COc1ccc(C(=O)NC(=S)Nc2ccc(N3CCOCC3)c(Cl)c2)cc1[N+](=O)[O-]	–	1% (inactive)	5% (inactive)	7% (inactive)
O=C(O)c1ccc2c(c1)C(=O)N(CCCCCCCN1C(=O)c3ccc(C(=O)O)cc3C1=O)C2=O	23% (inactive)	3% (inactive)	0% (inactive)	65%
O=C(c1ccc(-c2ccccc2)c(F)c1)C1CCCN(C(=O)c2cncs2)C1 (configuration not stated)	–	12% (inactive)	6% (inactive)	0% (inactive)
O=[N+]([O-])c1cccc(/C=N/N2CCN(Cc3ccc(Cl)cc3)CC2)c1	0% (inactive)	0% (inactive)	0% (inactive)	0% (inactive)
CC(=O)N1CCN(c2ccc(NC(=S)NC(=O)c3ccc(C)c([N+](=O)[O-])c3)cc2)CC1	0% (inactive)	14% (inactive)	5% (inactive)	17% (inactive)
O=C(CN1CCN(C(=O)c2ccco2)CC1)Nc1cc(C(F)(F)F)ccc1Cl	60%	13% (inactive)	0% (inactive)	78%
COc1ccc(C(=O)NC(=S)Nc2ccc(N3CCOCC3)cc2)cc1Cl	0% (inactive)	8% (inactive)	1% (inactive)	0% (inactive)
COc1ccc(N2CCN(C(=O)CCCCCn3c(=O)[nH]c4ccsc4c3=O)CC2)cc1	–	6% (inactive)	6% (inactive)	0% (inactive)
COc1ccc(N2CCN(C(=O)C3CCC(Cn4c(=S)[nH]c5ccccc5c4=O)CC3)CC2)cc1 (configuration not stated)	2% (inactive)	67%	45%	0% (inactive)
N#Cc1c(NC(=O)CSc2nc(N)cc(=O)[nH]2)sc2c1CCCC2	0% (inactive)	0% (inactive)	3% (inactive)	26% (inactive)
CC1CC(C)CN(S(=O)(=O)c2ccc3c(c2)CC(C)N3C(=O)C2CCC2)C1 (configuration not stated)	0% (inactive)	0% (inactive)	0% (inactive)	9% (inactive)
O=C(COc1ccc(Cl)cc1)N1CCN(C/C=C/c2ccccc2)CC1	–	25% (inactive)	12% (inactive)	0% (inactive)
O=C(c1ccc(S(=O)(=O)N2CCCCC2)cc1)N1CCN(CCN2C(=O)c3cccc4cccc(c34)C2=O)CC1	–	27% (inactive)	20% (inactive)	11% (inactive)
COc1cc([C@H]2Oc3cc([C@H]4Oc5cc(O)cc(O)c5C(=O)[C@@H]4O)ccc3O[C@@H]2CO)ccc1O	–	42%	28% (inactive)	13% (inactive)
O=c1[nH]c(CN2CCN(C/C=C/c3ccccc3)CC2)nc2cc(Cl)ccc12	–	2% (inactive)	0% (inactive)	3% (inactive)
COc1ccccc1-c1csc(-n2ncc(C#N)c2N)n1	–	6% (inactive)	4% (inactive)	0% (inactive)
COc1ccc(-n2nc(C(=O)NCC(=O)N3CCN(Cc4ccccc4)CC3)c3ccccc3c2=O)cc1	–	43%	17% (inactive)	17% (inactive)
CSc1ccccc1OCc1cc(C(=O)N2CCC(Oc3cccnc3)CC2)no1	–	16% (inactive)	6% (inactive)	0% (inactive)
Cc1ccc(N2CCN(C3=NC(=O)/C(=C\c4cccs4)S3)CC2)cc1	–	0% (inactive)	5% (inactive)	0% (inactive)
Cc1cc(OCc2cc(C(=O)N3CCC(Oc4cccnc4)CC3)no2)cc(C)c1Cl	–	5% (inactive)	3% (inactive)	0% (inactive)
